According to patent publication US11116754B2, “Inhibition of TOR complex 2 increases immunity against bacterial infection” (THE TRUSTEES OF COLUMBIA UNIVERSITY IN THE CITY OF NEW YORK, priority 2015, dated 2021):

How the values were obtained:
Burkholderia cepacia [1] = test: Survival of flies after Burkholderia cepacia infection; assay type: in vivo, Drosophila; settings: relative to vehicle-fed controls, p<0.0001
Experimental: Infections were performed as previously described (Schneider et al. 2007) with Burkholderia cepacia (ATCC strain #25416). Death was assayed visually the next day every hour or more frequently as needed. Survival curves are plotted as Kaplan-Meier graphs and log-rank analysis performed using GraphPad Prism. All infection experiments were performed with a minimum of 3 independent trials and yielded statistically similar results, except where noted. Graphs and p-values in figures are representative trials.
To directly test the role of TORC1 in survival of infection, TORC1 activity was inhibited in two ways. First, flies were injected with rapamycin, a TORC1-specific inhibitor (9.6 ng per fly, equivalent to the mammalian dose of 16 mg/kg (Lee et al. 2009; Loeweth et al. 2002)).
Wild type flies, 5-7 day old males, were fed two different concentrations (250 μM and 500 μM) of Torin (MedChem Express), a TORC1 and TORC2 inhibitor, for two days prior to infection with Burkholderia cepacia as described in Example 1. Controls were fed a vehicle.

Burkholderia cepacia [2] = test: Bacterial load quantitation after Burkholderia cepacia infection; assay type: in vivo, Drosophila; settings: wild type flies fed Torin vs vehicle-fed flies
From the text: Data are plotted with SEM.

Torin
survival of infection (Burkholderia cepacia [1]; wild type male flies fed 250 μM for two days prior to infection): significantly increased
survival of infection (Burkholderia cepacia [1]; wild type male flies fed 500 μM for two days prior to infection): significantly increased
bacterial load (Burkholderia cepacia [2]): not significant change
